Values after ≈ are worked out from the molar mass of the structure shown. Values joined by “and” are separate entries in the source; they are usually repeats but may differ in a detail not shown here. Equal values may be shown once.
Experiments:
[1] = system: Staphylococcus aureus ATCC 6738P; experiment: agar-plate disc-diffusion test; type: cell-based; conditions: suspended in water at 1 mg/ml; 7 mm disc; 24-48 hours at 25-37° C.
[2] = system: Micrococcus luteus ATCC 9341; experiment: agar-plate disc-diffusion test; type: cell-based; conditions: suspended in water at 1 mg/ml; 7 mm disc; 24-48 hours at 25-37° C.
[3] = system: Staphylococcus aureus X1.1; type: cell-based; conditions: agar dilution; 2, 5, 17, 22 median of three tests; paired values two experiments
[4] = system: Staphylococcus aureus V41; type: cell-based; conditions: penicillin-resistant strain; agar dilution; 2, 5, 17, 22 median of three tests; paired values two experiments
[5] = system: Staphylococcus aureus X400; type: cell-based; conditions: methicillin-resistant strain; agar dilution; 2, 5, 17, 22 median of three tests; paired values two experiments
[6] = system: Staphylococcus epidermidis EPI1; type: cell-based; conditions: agar dilution; 2, 5, 17, 22 median of three tests; paired values two experiments
[7] = system: Staphylococcus epidermidis EPI2; type: cell-based; conditions: agar dilution; 2, 5, 17, 22 median of three tests; paired values two experiments
[8] = system: Streptococcus pyogenes C203; type: cell-based; conditions: agar dilution; 2, 5, 17, 22 median of three tests; paired values two experiments
[9] = system: Streptococcus pneumoniae Park I; type: cell-based; conditions: agar dilution; 2, 5, 17, 22 median of three tests; paired values two experiments
[10] = system: Streptococcus pneumoniae Group D X66; type: cell-based; conditions: agar dilution; 2, 5, 17, 22 median of three tests; paired values two experiments
Streptococcus Group 9960 = type: cell-based, Streptococcus pneumoniae; conditions: agar dilution; 2, 5, 17, 22 median of three tests; paired values two experiments
Streptococcus pyogenes = experiment: in vivo activity against experimental bacterial infection (ED50); conditions: mice, dose protecting fifty percent of test animals; for ED50 Streptococcus pyogenes Oral: two doses orally; for ED50 Streptococcus pyogenes Subcutaneous: two doses subcutaneously
toxicity test (LD50) = conditions: mouse, in vivo, iv, mice; administered intravenously
[11] = system: Bacillus subtilis ATCC 6633; experiment: agar-plate disc-diffusion test; conditions: 7 mm disc, 24-48 hours at 25-37° C.; for Size of Zone of Inhibition (mm) B. subtilis ATCC 6633, grown on minimal nutrient agar: 1 mg/ml; for Size of Zone of Inhibition (mm) Bacillus subtilis ATCC 6633: suspended in water at 1 mg/ml
Description: ^a Compounds were suspended in water at a concentration of 1 mg/ml; a
7 mm disc was dipped into the suspension and then placed on the agar
surface; incubation: 24-48 hours at 25-37° C.
^b Grown on minimal nutrient agar

Staphylococcus aureus = experiment: in vivo activity against experimental bacterial infection (ED50); conditions: mice; two doses subcutaneously; dose protecting fifty percent of test animals

| Compound | Size of Zone of Inhibition (mm) Staphylococcus aureus ATCC 6738P [1] [mm] | Size of Zone of Inhibition (mm) Micrococcus luteus ATCC 9341 [2] [mm] | MIC Staphylococcus aureus X1.1 [3] [µg/mL] | MIC Staphylococcus aureus V41 [4] [µg/mL] | MIC Staphylococcus aureus X400 [5] [µg/mL] | MIC Staphylococcus epidermidis EPI1 [6] [µg/mL] | MIC Staphylococcus epidermidis EPI2 [7] [µg/mL] | MIC Streptococcus pyogenes C203 [8] | MIC Streptococcus pneumoniae Park I [9] [µg/mL] | MIC Streptococcus pneumoniae Group D X66 [10] [µg/mL] | MIC Streptococcus pneumoniae Group 9960 (Streptococcus Group 9960) [µg/mL] | ED50 Streptococcus pyogenes Oral (Streptococcus pyogenes) | LD50 (toxicity test (LD50)) [mg/kg] | Size of Zone of Inhibition (mm) B. subtilis ATCC 6633, grown on minimal nutrient agar [11] [mm] | Size of Zone of Inhibition (mm) Bacillus subtilis ATCC 6633 [11] | ED50 Staphylococcus aureus Subcutaneous (Staphylococcus aureus) [mg/kg × 2] | ED50 Streptococcus pyogenes Subcutaneous (Streptococcus pyogenes) [mg/kg × 2] |
| --- | --- | --- | --- | --- | --- | --- | --- | --- | --- | --- | --- | --- | --- | --- | --- | --- | --- |
| CCCCCCCC(=O)N[C@@H](Cc1c[nH]c2ccccc12)C(=O)N[C@@H](CC(N)=O)C(=O)N[C@@H](CC(=O)O)C(=O)N[C@@H]1C(=O)NCC(=O)N[C@@H](CCCN)C(=O)N[C@@H](CC(=O)O)C(=O)N[C@H](C)C(=O)N[C@@H](CC(=O)O)C(=O)NCC(=O)N[C@H](CO)C(=O)N[C@@H]([C@H](C)CC(=O)O)C(=O)N[C@@H](CC(=O)c2ccccc2N)C(=O)O[C@@H]1C [Compound 2] | 23 | 23 | 4 (≈ 2.51 µM) | 4 (≈ 2.51 µM) | 8 (≈ 5.02 µM) | 8 (≈ 5.02 µM) | 4 (≈ 2.51 µM) | 1 µg/mL (≈ 0.628 µM) | 8 (≈ 5.02 µM) | 64 (≈ 40.2 µM) | 16 (≈ 10 µM) | > 200 mg/kg × 2 | > 600 | 20 | 18 mm |  |  |
| CCCCCCCCCC(=O)N[C@@H](Cc1c[nH]c2ccccc12)C(=O)N[C@H](CC(N)=O)C(=O)N[C@@H](CC(=O)O)C(=O)N[C@@H]1C(=O)NCC(=O)N[C@@H](CCCN)C(=O)N[C@@H](CC(=O)O)C(=O)N[C@H](C)C(=O)N[C@@H](CC(=O)O)C(=O)NCC(=O)N[C@H](CO)C(=O)N[C@@H]([C@H](C)CC(=O)O)C(=O)N[C@@H](CC(=O)c2ccccc2N)C(=O)O[C@@H]1C [Compound 4] |  |  |  |  |  |  |  |  |  |  |  |  | > 300 |  |  |  |  |
| CCCCCCCCCCCC(=O)N[C@@H](Cc1c[nH]c2ccccc12)C(=O)N[C@@H](CC(N)=O)C(=O)N[C@@H](CC(=O)O)C(=O)N[C@@H]1C(=O)NCC(=O)N[C@@H](CCCN)C(=O)N[C@@H](CC(=O)O)C(=O)N[C@H](C)C(=O)N[C@@H](CC(=O)O)C(=O)NCC(=O)N[C@H](CO)C(=O)N[C@@H]([C@H](C)CC(=O)O)C(=O)N[C@@H](CC(=O)c2ccccc2N)C(=O)O[C@@H]1C [Compound 6] | 25 | 19 |  |  |  | 1 (≈ 0.607 µM) | 1 (≈ 0.607 µM) | 0.125 µg/mL and 0.25 µg/mL | 0.25 (≈ 0.152 µM) | 2 (≈ 1.21 µM) | 0.5 (≈ 0.303 µM) | 69 mg/kg × 2 | 144 | 32 | 20 mm | 0.44 | 0.05 |
| CCCCCCCCCCCCCC(=O)N[C@@H](Cc1c[nH]c2ccccc12)C(=O)N[C@@H](CC(N)=O)C(=O)N[C@@H](CC(=O)O)C(=O)N[C@@H]1C(=O)NCC(=O)N[C@@H](CCCN)C(=O)N[C@@H](CC(=O)O)C(=O)N[C@H](C)C(=O)N[C@@H](CC(=O)O)C(=O)NCC(=O)N[C@H](CO)C(=O)N[C@@H]([C@H](C)CC(=O)O)C(=O)N[C@@H](CC(=O)c2ccccc2N)C(=O)O[C@@H]1C [Compound 8] | 22 | 21 |  |  | 2 (≈ 1.19 µM) | 1 (≈ 0.596 µM) | 2 (≈ 1.19 µM) |  |  |  |  | < 50 mg/kg × 2 | 62.5 | 28 | 21 mm |  |  |
| CCC(C)CCCCCCC(=O)N[C@@H](Cc1c[nH]c2ccccc12)C(=O)N[C@@H](CC(N)=O)C(=O)N[C@@H](CC(=O)O)C(=O)N[C@@H]1C(=O)NCC(=O)N[C@@H](CCCNC(C)=O)C(=O)N[C@@H](CC(=O)O)C(=O)N[C@H](C)C(=O)N[C@@H](CC(=O)O)C(=O)NCC(=O)N[C@H](CO)C(=O)N[C@@H]([C@H](C)CC(=O)O)C(=O)N[C@@H](CC(=O)c2ccccc2N)C(=O)O[C@@H]1C (some centres unmarked) [Compound 14] | 21 | 20 |  |  |  |  |  |  |  |  |  | 163 mg/kg × 2 and > 200 mg/kg × 2 | > 600 | 25 | 18 mm | 1.3 |  |
| CCC(C)CCCCCCC(=O)N[C@@H](Cc1c[nH]c2ccccc12)C(=O)N[C@@H](CC(N)=O)C(=O)N[C@@H](CC(=O)O)C(=O)N[C@@H]1C(=O)NCC(=O)N[C@@H](CCCNC(=O)CCC(=O)O)C(=O)N[C@@H](CC(=O)O)C(=O)N[C@H](C)C(=O)N[C@@H](CC(=O)O)C(=O)NCC(=O)N[C@H](CO)C(=O)N[C@@H]([C@H](C)CC(=O)O)C(=O)N[C@@H](CC(=O)c2ccccc2N)C(=O)O[C@@H]1C (some centres unmarked) [Compound 15] | 21 | 19 |  |  |  |  |  |  |  |  |  | > 200 mg/kg × 2 | 450 | 25 | 18 mm | 6.27 | 1.4 |
| CCCCCCCC(=O)NCCC[C@@H]1NC(=O)CNC(=O)[C@@H](NC(=O)[C@H](CC(=O)O)NC(=O)[C@H](CC(N)=O)NC(=O)[C@H](Cc2c[nH]c3ccccc23)NC(=O)CCCCCCC)[C@@H](C)OC(=O)[C@H](CC(=O)c2ccccc2N)NC(=O)[C@H]([C@H](C)CC(=O)O)NC(=O)[C@@H](CO)NC(=O)CNC(=O)[C@H](CC(=O)O)NC(=O)[C@@H](C)NC(=O)[C@H](CC(=O)O)NC1=O [Compound 16] | 11 | 10 | 8 (≈ 4.65 µM) | 16 (≈ 9.31 µM) | 8 (≈ 4.65 µM) | 16 (≈ 9.31 µM) | 16 (≈ 9.31 µM) | 4 µg/mL (≈ 2.33 µM) | 4 (≈ 2.33 µM) | > 128 | 64 (≈ 37.2 µM) |  | > 600 | 17 | tr |  |  |
| CCCCCCCCCCCCN[C@@H](Cc1c[nH]c2ccccc12)C(=O)N[C@@H](CC(N)=O)C(=O)N[C@@H](CC(=O)O)C(=O)N[C@@H]1C(=O)NCC(=O)N[C@@H](CCCN)C(=O)N[C@@H](CC(=O)O)C(=O)N[C@H](C)C(=O)N[C@@H](CC(=O)O)C(=O)NCC(=O)N[C@H](CO)C(=O)N[C@@H]([C@H](C)CC(=O)O)C(=O)N[C@@H](CC(=O)c2ccccc2N)C(=O)O[C@@H]1C [Compound 22, NTrp -(n-dodecyl)-A-21978C nucleus] |  |  | 0.5 (≈ 0.306 µM) | 1 (≈ 0.612 µM) | 1 (≈ 0.612 µM) | 1 (≈ 0.612 µM) | 1 (≈ 0.612 µM) | 0.5 µg/mL (≈ 0.306 µM) | 1 (≈ 0.612 µM) | 4 (≈ 2.45 µM) | 1 (≈ 0.612 µM) | > 200 mg/kg × 2 | > 300 |  |  | 1.25 |  |
| NTrp -(n-Decanoyl)-NKyn -(n-decanoyl)-A-21978C [Compound 21] |  |  | 1 | 4 | 32 | 2 | 2 | 0.125 µg/mL | 0.5 | > 128 | 128 |  |  |  |  |  |  |
| NTrp -(n-dodecyl)-NOrn -(n-dodecyl)-A-21978C nucleus [Compound 23] |  |  | 8 | 8 | 16 | 8 | 8 | 4 µg/mL | 8 | 32 | 8 |  |  |  |  |  |  |
